SMILES strings stand for the structures. Where only a bound is given, the exact number is not on record here.

One test has as its system MV-4-11. Description: Oncology cell growth assay MV-4-11 (CellTiter Glo, 72 hours). Format: cell-based. The conditions noted are these: Homo sapiens, MV4-11, 72 h; MV-4-11 cell growth inhibitory activity, 3d. An excerpt:
(§1) Published bromodomain inhibitors JQ1 and iBET 151 have shown activity in variety of cancer cells such leukemia and lymphoma, multiple myeloma cells, NUT midline carcinoma and glioblastoma cells (Dawson M A et al. 2011; Delmore J E 2011; Chen Z et al. 2013; Filippakopoulos P et al. 2010; Mertz J A et al. 2011; Ott C J et al. 2012). In this study, we test compounds in different cancer cell lines. MV-4-11 and MOLM-13 are AML cell lines harboring a MLL-AF4 and MLL-AF9 translocation, respectively. MM.1S is a multiple myeloma cell line. SK-N-AS, IMR-32 and SK-N-BE(2) are neuroblastoma cell lines. IMR-32 and SK-N-BE(2) cell lines harbor MYCN amplifications. MV-4-11, MM.1S, IMR-32, SK-N-AS and SK-N-BE(2) were obtained from ATCC (IL, USA) and MOLM-13 were purchased from DSMZ (Braunschweig, German). Cells are cultured as recommended by their sources. For growth inhibition studies 3000 cells are seeded in wells of a 96-well plate in 75 μL of culture media. After several hours, growth media containing compounds of formula (I) are added to the wells. Compound at a maximal concentration of 5 mM was serially diluted 1:3 for a total of 8 point titration with DMSO as a control. A 1 μL aliquot of each dilution point is added to 249 μL growth media and 75 μL is added to each well containing cells, providing 10 μM compound at the maximum concentration point. The final concentration of DMSO in all wells is 0.2%. Cells are incubated for 72 hours, and 25 μL of CellTiter Glo Reagent (Promega Ga., USA) is added to each well. Plates are shaken for approximately 10 minutes and chemiluminescent signal is read on Tecan microplate reader. The measured luminescence correlates directly with cell number.
(§2) All data is normalized to the mean of eight DMSO high control wells on each plate. A four parameter curve fit of the following formula was then applied: Y=a+(b−a)/(1+(x/c)^d) Where ‘a’ is the minimum, ‘b’ is the maximum, ‘c’ is the pIC50 and ‘d’ is the Hill slope. […] Myc Reporter Assay
The following table provides data indicating the BRD4 biochemical inhibitory activity and MV-4-11 cell growth inhibitory activity for exemplary compounds as described herein.

For a further test, the system named is bromodomain. Description: Bromodomain cell assays of Example 40 (at least one of them). The class given is cell-based. The conditions noted are these: in at least one of the bromodomain cell assays described in Example 40.
Source text: as §1, §2
In MV-4-11 cells, BRD2, BRD3 and BRD4 bind to the promoter region of MYC and regulate its transcription (Dawson M A et al. 2011). The literature bromodomain inhibitor iBET 151 could disrupt BRD4 recruitment to the MYC promoter and subsequently downregulate c-myc transcription (Dawson M A et al. 2011). Myc protein is a transcription factor that heterodimerizes with an obligatory partner Max and regulates the transcription of genes important for cell proliferation, differentiation, and apoptosis. This Myc reporter assay is used to monitor the inhibitory effect of compound of formula (I) on Myc dependent gene expression. Effective compounds could have potential therapeutic effects in Myc-driven tumors.
The MV-4-11 Myc reporter cell line is established by infecting MV-4-11 with VSV-g pseudotyped lentivirus expressing the firefly luciferase gene under the control of a minimal (m) CMV promoter and tandem repeats of the E-box transcriptional response element (TRE) (Qiagen IL, USA) and selecting cells in […] Puromycin.
The MV-4-11 Myc reporter cell line is maintained in Iscove's Modified Dulbecco's Medium containing 10% FBS, 1% PenStep and 2.5 μg/ml Puromycin. Cells are incubated at 37° C. in a humidified atmosphere with 5% CO2. 25,000 cells are seeded in 96-well plate in 50 μL of culture media. After several hours, growth media containing 2× compounds are added to the wells. Compound at a maximal concentration of 5 mM is serially diluted 1:3 for a total of 8 point titration. A 1 μl aliquot of each dilution point is added to 249 μl growth media and 50 μl is added to each well containing cells, providing 10 μM compound at the maximum concentration point. DMSO treated cells serve as a high control and 10 μM JQ1 treated cells serve as a low control. Cells are incubated for a further 24 hours and 25 μL of CellTiter-Fluo Reagent (Promega Ga., USA) is added to each well. Plates are shaken for approximately 2 minutes and incubated at 37° C. for 0.5 hour. […]

On to `Cc1noc(C)c1-c1cnc2[nH]cc(C(=O)C3CCC(F)(F)CC3)c2c1` [P-0031, (4,4-difluorocyclohexyl)-[5-(3,5-dimethylisoxazol-4-yl)-1H-pyrrolo[2,3-b]pyridin-3-yl]methanone], for which the IC50 (as a rule, the concentration needed to halve the response being measured) with MV-4-11 is 1 to 10 µM; in the test with bromodomain it was < 10 µM.

Turning to `Cc1noc(C)c1-c1cnc2[nH]cc(CC3CCC(F)(F)CC3)c2c1` [P-0034, 4-[3-[(4,4-difluorocyclohexyl)methyl]-1H-pyrrolo[2,3-b]pyridin-5-yl]-3,5-dimethyl-isoxazole], the IC50 in the test with MV-4-11 was ≤ 1 µM; with bromodomain it was < 10 µM.

Turning to `CCCCS(=O)(=O)n1ccc2ncc(-c3c(C)noc3C)cc21` [P-0036, 4-(1-butylsulfonylpyrrolo [3,2-b]pyridin-6-yl)-3,5-dimethyl-isoxazole], the IC50 was 1 to 10 µM in the test on MV-4-11 and < 10 µM with bromodomain.

For `Cc1noc(C)c1-c1cnc2ccn(S(=O)(=O)C3CCCC3)c2c1` [P-0037, 4-(1-cyclopentylsulfonylpyrrolo [3,2-b]pyridin-6-yl)-3,5-dimethyl-isoxazole], the IC50 is ≤ 1 µM in the test on MV-4-11 and < 10 µM in the test on bromodomain.

For the molecule `Cc1noc(C)c1-c1cnc2ccn(S(=O)(=O)c3ccccc3)c2c1` [P-0038, 4-[1-(benzenesulfonyl)pyrrolo [3,2-b]pyridin-6-yl]-3,5-dimethyl-isoxazole], the values for the IC50 in the test with MV-4-11 and in the test on bromodomain were ≤ 1 µM and < 10 µM, respectively.

For the molecule `Cc1noc(C)c1-c1cnc2[nH]cc(C(O)c3cccc(OC(F)(F)F)c3)c2c1` (stereo not drawn) [P-0039, [5-(3,5-dimethylisoxazol-4-yl)-1H-pyrrolo[2,3-b]pyridin-3-yl]-[3-(trifluoromethoxy)phenyl] methanol], the IC50 is 1 to 10 µM in the test on MV-4-11 and < 10 µM in the test with bromodomain.

Take `Cc1noc(C)c1-c1cnc2[nH]cc(C(O)c3ccccc3OC(F)F)c2c1` (stereo not drawn) [P-0040, [2-(difluoromethoxy)phenyl]-[5-(3,5-dimethylisoxazol-4-yl)-1H-pyrrolo[2,3-b]pyridin-3-yl] methanol]: the IC50 in the test on MV-4-11 was ≤ 1 µM; with bromodomain, < 10 µM.

With `Cc1noc(C)c1-c1cnc2[nH]cc(C(O)c3cccc4c3OC(F)(F)O4)c2c1` (stereo not drawn) [P-0041, (2,2-difluoro-1,3-benzodioxol-4-yl)-[5-(3,5-dimethylisoxazol-4-yl)-1H-pyrrolo[2,3-b]pyridin-3-yl] methanol], the concentration for half-maximal inhibition (IC50) in the test with MV-4-11 was 1 to 10 µM; in the test with bromodomain, < 10 µM.

With `CCc1[nH]c2ncc(-c3c(C)noc3C)cc2c1C(O)c1ccccc1Cl` (stereo not drawn) [P-0042, (2-chlorophenyl)-[5-(3,5-dimethylisoxazol-4-yl)-2-ethyl-1H-pyrrolo[2,3-b]pyridin-3-yl]methanol], the IC50 was ≤ 1 µM in the test on MV-4-11 and < 10 µM in the test on bromodomain.

Regarding `CCc1[nH]c2ncc(-c3c(C)noc3C)cc2c1C(O)c1cccc(OC(F)(F)F)c1` (stereo not drawn) [P-0043, [5-(3,5-dimethylisoxazol-4-yl)-2-ethyl-1H-pyrrolo[2,3-b]pyridin-3-yl]-[3-(trifluoromethoxy)phenyl]methanol], the IC50 with MV-4-11 is 1 to 10 µM; with bromodomain, < 10 µM.

Regarding `CCc1[nH]c2ncc(-c3c(C)noc3C)cc2c1C(O)C1CCC(F)(F)CC1` (stereo not drawn) [P-0044, (4,4-difluorocyclohexyl)-[5-(3,5-dimethylisoxazol-4-yl)-2-ethyl-1H-pyrrolo[2,3-b]pyridin-3-yl]methanol], the results for the IC50 in the test with MV-4-11 and in the test on bromodomain were ≤ 1 µM and < 10 µM, respectively.

As for `CCc1[nH]c2ncc(-c3c(C)noc3C)cc2c1C(OC)C1CCC(F)(F)CC1` (stereo not drawn) [P-0045, 4-[3-[(4,4-difluorocyclohexyl)-methoxy-methyl]-2-ethyl-1H-pyrrolo[2,3-b]pyridin-5-yl]-3,5-dimethyl-isoxazole], the IC50 with MV-4-11 was ≤ 1 µM; in the test on bromodomain, < 10 µM.

Regarding `Cc1noc(C)c1-c1cnc2[nH]cc(Cc3ccccc3OC(F)F)c2c1` [P-0047, 4-[3-[[2-(difluoromethoxy)phenyl]methyl]-1H-pyrrolo[2,3-b]pyridin-5-yl]-3,5-dimethyl-isoxazole], the concentration for half-maximal inhibition (IC50) is 1 to 10 µM in the test on MV-4-11 and < 10 µM with bromodomain.

For `Cc1noc(C)c1-c1cnc2[nH]cc(Cc3cccc4c3OC(F)(F)O4)c2c1` [P-0048, 4-[3-[(2,2-difluoro-1,3-benzodioxol-4-yl)methyl]-1H-pyrrolo[2,3-b]pyridin-5-yl]-3,5-dimethyl-isoxazole], the IC50 was 1 to 10 µM with MV-4-11 and < 10 µM in the test on bromodomain.

Turning to `CCc1[nH]c2ncc(-c3c(C)noc3C)cc2c1Cc1ccccc1Cl` [P-0049, 4-[3-[(2-chlorophenyl)methyl]-2-ethyl-1H-pyrrolo[2,3-b]pyridin-5-yl]-3,5-dimethyl-isoxazole], the IC50 with MV-4-11 was 1 to 10 µM; with bromodomain, < 10 µM.

`Cc1noc(C)c1-c1cnc2ccn(S(=O)(=O)c3ccccc3F)c2c1` [P-0060, 4-[1-(2-fluorophenyl)sulfonylpyrrolo[3,2-b]pyridin-6-yl]-3,5-dimethyl-isoxazole]: the IC50 in the test with MV-4-11 is 1 to 10 µM; in the test with bromodomain, < 10 µM.

Regarding `Cc1ccc(S(=O)(=O)n2ccc3ncc(-c4c(C)noc4C)cc32)s1` [P-0062, 3,5-dimethyl-4-[1-[(5-methyl-2-thienyl)sulfonyl]pyrrolo[3,2-b]pyridin-6-yl]isoxazole], the IC50 is 1 to 10 µM in the test with MV-4-11 and < 10 µM with bromodomain.

For `Cc1noc(C)c1-c1cnc2[nH]cc(C(C)(C)c3ccc(F)cc3)c2c1` [P-0063, 4-[3-[1-(4-fluorophenyl)-1-methyl-ethyl]-1H-pyrrolo[2,3-b]pyridin-5-yl]-3,5-dimethyl-isoxazole], the values for the IC50 in the test with MV-4-11 and with bromodomain were ≤ 1 µM and < 10 µM, respectively.

On to `Cc1noc(C)c1-c1cnc2[nH]cc(C(c3ccc(F)cc3)C3CC3)c2c1` (stereo not drawn) [P-0064, 4-[3-[cyclopropyl-(4-fluorophenyl)methyl]-1H-pyrrolo[2,3-b]pyridin-5-yl]-3,5-dimethyl-isoxazole], for which the IC50 in the test with MV-4-11 is ≤ 1 µM; with bromodomain, < 10 µM.

For `Cc1noc(C)c1-c1cnc2ccn(S(=O)(=O)C3CCCCC3)c2c1` [P-0066, 4-(1-cyclohexylsulfonylpyrrolo [3,2-b]pyridin-6-yl)-3,5-dimethyl-isoxazole], the IC50 in the test with MV-4-11 is ≤ 1 µM; in the test with bromodomain, < 10 µM.

For the molecule `COC(c1cn(S(=O)(=O)C2CCCCC2)c2cc(-c3c(C)noc3C)cnc12)C1CC1` (stereo not drawn) [P-0071, 4-[1-cyclohexylsulfonyl-3-[cyclopropyl(methoxy)methyl]pyrrolo[3,2-b]pyridin-6-yl]-3,5-dimethyl-isoxazole], the IC50 in the test with MV-4-11 is 1 to 10 µM; with bromodomain, < 10 µM.

Regarding `COC(c1c[nH]c2ncc(-c3c(C)noc3C)cc12)C1CCC(F)(F)CC1` (stereo not drawn) [P-0073, 4-[3-[(4,4-difluorocyclohexyl)-methoxy-methyl]-1H-pyrrolo[2,3-b]pyridin-5-yl]-3,5-dimethyl-isoxazole], the IC50 in the test with MV-4-11 was ≤ 1 µM; in the test on bromodomain, < 10 µM.

Regarding `Cc1noc(C)c1-c1cnc2c(CC3CC3)cn(S(=O)(=O)C3CCCCC3)c2c1` [P-0075, 4-[1-cyclohexylsulfonyl-3-(cyclopropylmethyl)pyrrolo [3,2-b]pyridin-6-yl]-3,5-dimethyl-isoxazole], the IC50 in the test with MV-4-11 was 1 to 10 µM; in the test with bromodomain, < 10 µM.

Take `Cc1noc(C)c1-c1cnc2c(I)cn(S(=O)(=O)c3ccccc3)c2c1` [P-0076, 4-[1-(benzenesulfonyl)-3-iodo-pyrrolo[3,2-b]pyridin-6-yl]-3,5-dimethyl-isoxazole]: the IC50 in the test on MV-4-11 was ≤ 1 µM; with bromodomain, < 10 µM.

(Values after patent US10501460B2, “Heterocyclic compounds and uses thereof” (Plexxikon Inc., priority 2013, dated 2019).)
